Test results from ChEMBL document CHEMBL1143013, “4-aryl-5-(4-piperidyl)-3-isoxazolol GABAA antagonists: synthesis, pharmacology, and structure-activity relationships” (J Med Chem, 2007).
pKi: −log10 of the molar value. Calls of active or inactive are those of the source. The calls are words filed in the database; no cut-off is given here.

Legend:
[1] = Displacement of [3H]muscimol from GABAA receptor in Sprague-Dawley rat brain synaptic membrane
Rattus norvegicus = species: Rattus norvegicus; experiment: Displacement of [3H]GABA from GABAB receptor in Sprague-Dawley rat brain synaptic membrane at 100 uM
[2] = target: T1, GABA-A receptor; alpha-1/beta-3/gamma-2 (Homo sapiens, UniProt P14867+P18507+P28472); experiment: Antagonist activity at human GABAA alpha-1-beta-3-gamma-2S expressed in Xenopus oocytes by two-electrode voltage-clamp electrophysiology; assay type: functional, cell-based, Oocyte; conditions: for pKi: read-out: Ki
T1 sequence (P14867 whole entry): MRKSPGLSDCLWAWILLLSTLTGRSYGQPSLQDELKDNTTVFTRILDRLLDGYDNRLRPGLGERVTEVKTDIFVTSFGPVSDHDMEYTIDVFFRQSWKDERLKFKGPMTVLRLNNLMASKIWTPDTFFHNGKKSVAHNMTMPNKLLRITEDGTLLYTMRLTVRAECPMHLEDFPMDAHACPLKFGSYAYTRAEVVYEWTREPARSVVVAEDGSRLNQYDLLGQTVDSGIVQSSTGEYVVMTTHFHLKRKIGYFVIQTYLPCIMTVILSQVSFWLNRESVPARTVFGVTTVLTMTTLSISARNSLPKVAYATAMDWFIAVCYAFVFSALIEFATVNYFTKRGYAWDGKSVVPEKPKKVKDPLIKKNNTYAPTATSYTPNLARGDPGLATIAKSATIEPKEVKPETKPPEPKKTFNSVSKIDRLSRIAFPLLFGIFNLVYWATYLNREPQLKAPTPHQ
T1 sequence (P18507 whole entry): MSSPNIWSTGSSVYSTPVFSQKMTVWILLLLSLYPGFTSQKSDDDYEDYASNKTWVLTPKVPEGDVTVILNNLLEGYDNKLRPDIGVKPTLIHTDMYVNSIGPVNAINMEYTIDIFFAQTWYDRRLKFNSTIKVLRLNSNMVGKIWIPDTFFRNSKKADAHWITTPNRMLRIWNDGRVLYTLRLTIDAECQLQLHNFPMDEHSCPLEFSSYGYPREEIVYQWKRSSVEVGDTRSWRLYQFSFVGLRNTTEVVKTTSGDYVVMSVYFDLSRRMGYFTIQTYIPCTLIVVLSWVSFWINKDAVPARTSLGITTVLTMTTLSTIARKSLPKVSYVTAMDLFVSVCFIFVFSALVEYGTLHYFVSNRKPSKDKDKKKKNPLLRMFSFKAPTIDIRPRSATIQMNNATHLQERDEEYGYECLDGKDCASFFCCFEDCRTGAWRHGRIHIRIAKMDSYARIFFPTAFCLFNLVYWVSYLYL
T1 sequence (P28472 whole entry): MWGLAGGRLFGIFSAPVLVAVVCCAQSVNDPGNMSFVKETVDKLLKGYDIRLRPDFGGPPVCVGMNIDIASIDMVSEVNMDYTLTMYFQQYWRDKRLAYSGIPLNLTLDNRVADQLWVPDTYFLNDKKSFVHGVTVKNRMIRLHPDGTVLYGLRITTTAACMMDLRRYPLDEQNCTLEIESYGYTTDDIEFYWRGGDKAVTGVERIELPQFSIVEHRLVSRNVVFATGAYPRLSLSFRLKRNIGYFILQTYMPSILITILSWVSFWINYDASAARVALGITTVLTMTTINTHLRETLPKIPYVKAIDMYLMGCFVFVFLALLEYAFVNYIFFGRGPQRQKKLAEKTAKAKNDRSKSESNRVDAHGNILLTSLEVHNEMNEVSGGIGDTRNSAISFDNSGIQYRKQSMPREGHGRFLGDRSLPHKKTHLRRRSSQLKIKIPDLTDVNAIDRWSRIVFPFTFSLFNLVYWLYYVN

Row | Structure (SMILES) | pKi [1] | Activity (Rattus norvegicus) | pKi [2] | Log Ki [1] | Ki ([2]; read-out: Log Ki (converted)) [nM]
1 | Oc1noc(C2CCNCC2)c1-c1ccc2ccccc2c1 | 7.44 | inactive | 6.85 | – | –
2 | Br.Oc1noc(C2CCNCC2)c1-c1ccccc1Cl | 6.07 | inactive | 6.89 | -6.07 | –
3 | Oc1cc(C2CCNCC2)on1 | – | inactive | – | – | –
4 | Oc1noc(C2CCNCC2)c1Cc1ccc2ccccc2c1-c1ccccc1 | 7.68 | inactive | 6.70 | – | –
5 | Br.O=[N+]([O-])c1cccc(-c2c(O)noc2C2CCNCC2)c1 | 6.63 | inactive | 6.86 | -6.63 | –
6 | Br.Oc1noc(C2CCNCC2)c1-c1ccc(Cl)cc1 | 5.62 | inactive | 6.69 | -5.62 | –
7 | Oc1noc(C2CCNCC2)c1-c1ccccc1 | 6.66 | inactive | 6.80 | – | –
8 | Br.Oc1noc(C2CCNCC2)c1-c1cccc(-c2ccccc2)c1 | 8.00 | inactive | 8.00 | -8 | –
9 | Br.CC(C)(C)c1ccc(-c2c(O)noc2C2CCNCC2)cc1 | 5.16 | inactive | 6.59 | -5.16 | –
10 | Br.Oc1noc(C2CCNCC2)c1-c1cccnc1 | 6.02 | inactive | 6.37 | -6.02 | 479
11 | Br.Oc1noc(C2CCNCC2)c1-c1ccc(Oc2ccccc2)cc1 | 7.15 | inactive | 8.10 | -7.15 | –
12 | O=c1[nH]oc(C2CCNCC2)c1-c1cccc2ccccc12 | – | – | 6.48 | – | –
13 | Br.Oc1noc(C2CCNCC2)c1-c1csc(-c2ccccc2)c1 | 7.60 | inactive | 8.05 | -7.61 | –
14 | Br.Br.Nc1cccc(-c2c(O)noc2C2CCNCC2)c1 | 7.08 | inactive | 7.23 | -7.07 | –
15 | Br.Oc1noc(C2CCNCC2)c1-c1cccc(Cl)c1 | 7.24 | inactive | 7.32 | -7.24 | –
16 | Br.Oc1noc(C2CCNCC2)c1-c1ccc(-c2ccccc2)cc1 | 6.71 | inactive | 7.15 | -6.71 | –
17 | Br.Oc1noc(C2CCNCC2)c1-c1ccsc1 | 6.50 | inactive | 7.12 | -6.5 | –
18 | Oc1noc(C2CCNCC2)c1-c1cccc2ccccc12 | 6.09 | inactive | – | – | –
19 | Br.Oc1noc(C2CCNCC2)c1-c1cc(Cl)cc(Cl)c1 | 7.11 | inactive | 7.17 | -7.11 | –
20 | Oc1noc(C2CCNCC2)c1Cc1ccc2ccccc2c1 | 7.31 | inactive | – | – | –
